Laboratory results as given in patent US7476729B2, “Dbait and uses thereof” (Institut Curie, priority 2003, dated 2009).
“Also recorded” adds a separate entry of the source.

Assays:
[1] = test system: γ-H2AX foci in Hela cells; experiment: Immunodetection of DSB sites (γ-H2AX foci) in Hela cells after irradiation; type: cell-based, human; conditions: 2 μg Dbait, two hours after 2 Gy irradiation
Protocol: Transfection and irradiation protocoles were similar to those described above. For immunodetection, the cells were grown on surface coverslip in 5 cm diameter Petri dishes, transfected with 2 μg Dbait32H-FITC (SEQ ID NO: 1) molecules labeled with FITC with Superfect (Qiagene) according to the manufacturer's instruction. Four hours after the beginning of the transfection, cells were irradiated (2 Gy), then rest for 2 hours in the medium at 37° C. After 3 washing cycles, the cells were fixated with 2% PFA for 10 minutes. After one additional washings, the presence of γ-H2AX was detected with rabbit anti-γ-H2AX antibody (4411-PC, Trevigen) diluted 1/100 in 1×PBS, 1% BSA. Cells were washed three times with 1×PBS, 0.5% TritonX-100, then incubated for 1 hour at room temperature with rhodamine-conjugated goat anti-rabbit antibodies diluted 1/100 in 1×PBS, 1% BSA. Cells were visualized by epifluorescence microscopy.
Left panel: fluorescence of Dbait32H-FITC (SEQ ID NO: 1) (bright dots and patches) and DBS foci detected by immunofluorescence of γ-H2AX antibody in nuclei; Right panel: the same image of nuclei with DSB foci detected by immunofluorescence of γ-H2AX antibody and DAPI counterstaining. The arrows at the lower left corner show the absence of Dbait32H-FITC (SEQ ID NO: 1) and γ-H2AX signal in nucleus. […]

[2] = test system: tumor tissues of K-Ras^V12G×Apc^1638N transgenic mouse; experiment: Fluorescence microscopy of digestive tumor tissue of a treated transgenic mouse; type: in vivo; conditions: oral, with 5FU+CPT11 for three days, sacrificed two hours after the last treatment
Protocol: Tumor samples prepared from animals treated with Dbait molecules tagged by fluorescein (Dbait32H-FITC) (SEQ ID NO: 1) and 5FU+CPT11 were analysed using immunofluorescence staining methods. γ-H2AX labeled foci were costained with fluorescent Dbait molecules, in reminiscence of the in vitro finding (cf. example 3.3 and 4). […] Then the tumor tissues were sampled and frozen at −80° C. For the analysis, 5 μm histological samples were made from the frozen tumor tissues by cryostat. DNA repair foci were detected by immunofluorescence with polyclonal rabbit anti-γ-H2AX antibody (Trevigen) diluted 1/500 in PBS, then with goat anti-rabbit antibody tagged by cyanine 3 (Jackson) diluted 1/200 in PBS. The samples were also counterstained by DAPI Samples were visualized by epifluorescence microscopy. […] Similar pattern was found for γ-H2AX sites (FIG. 5.3, panel B, right). The co-localized Dbait32H-FITC (SEQ ID NO: 1) and γ-H2AX signals were almost observed.

[3] = test system: γ-H2AX foci in GMA32 cells; experiment: Immunodetection of γ-H2AX DSB foci in GMA32 cells; type: cell-based, Chinese hamster; conditions: GMA32, Dbait with lipofectamine, no irradiation
Protocol: Under the same conditions, the immunodetection of DSB foci of γ-H2AX phosphorylated on serine 139 by γ-H2AX labeling (bright dots or patches in nuclei) was performed in the untreated GMA32 cells, the cells transfected alone, or transfected with different Dbait molecules by lipofectamine. The counterstaining of cell membranes and nuclei were achieved by FITC-DiOC6 and DAPI. Similar effects of Dbait molecules were observed (FIG. 3.2). […] This provides visual evidence that these Dbait molecules can be used for trapping proteins involved in DSB repair via NHEJ pathway.
For immunodetection, the cells were grown on coverslip in 5 cm diameter Petri dishes 24 hours before the transfection with different Dbait molecules. One day after the transfection, FITC-DiOC6 (Molecular probes) was added in the medium 5 minutes at 37° C. (to counterstain the membranes). After 3 washing cycles, the cells were fixated with 4% PFA for 20 minutes.
After additional washing, γ-H2AX phosphorylated on serine 139 (γ-H2AX) was detected with. rabbit anti-γ-H2AX antibody (4411-PC, Trevigen) diluted 1/100 in 1×PBS, 1% BSA. Cells were washed three times with 1×PBS, 0.5%, TritonX-100, then incubated for 1 hour at room temperature with goat anti-rabbit antibodies Alexa 594 (Molecular Probes) diluted 1/100 in 1×PBS, 1% BSA. Cells were visualized by epifluorescence microscopy.

GMA32 cells [4] = experiment: Clonogenicity (clonal survival) assay in GMA32 cells with irradiation or mitotic inhibitors; type: cell-based, Chinese hamster
Protocol: (§1) The GMA32 Chinese hamster fibroblast cells permissive of DNA breaks were maintained in MEM medium (Gibco) supplemented with 1 mM sodium pyruvate, 2 mM glutamine, 1×MEM non essential amino acids, 1× penicillin/streptomycin and 10% horse serum. Typically, 2×10^5 to 4×10^5 cells were seeded in medium without antibiotics, in 5 cm diameter Petri dishes 24 hours before the transfection of different Dbait molecules (4.5 μg) with lipofectamine 2000 (LifeTechnologies) as transfection agent (in a 1:3 ratio), according to the manufacturer's instructions. At the end of the transfection the cells were either irradiated (4 Gy) or treated with mitotic inhibitors: nocodazole (200 nM), navelbine (100 nM) or taxol (200 nM).
(§2) About 16 hour later the drug was removed and the cells were allowed to recover. Cell irradiation was performed with γ-rays from a ^137Cs source. After a 24 hours recovery, the cells were collected and used either for FACS, western blot analyses or to determine the clonogenicity (survival) and the effect of each treatment.
The effect of radiosensitization and chemosensitization of Dbait molecules in GMA32 cells was evaluated by clonogenicity (clonal survival) assay. For the clonogenicity assay, serial dilutions were made after counting the cells to seed 5 cm Petri dishes with different amounts of cells. The number of cells range from 100-200 (control cells) to 3000 (transfected or/and treated cells). Ten days after, the cells (forming clone) were fixed with 4% paraformaldehyde (20 minutes), then colored with methylene blue (15 minutes), and the number of clone in each plate (in triplicates) was scored.
These drugs are known as potent inhibitors of either polymerization or depolymerization of microtubules. Dbait32 (SEQ ID NO: 1) and Dait32H (SEQ ID NO: 1) were able to enhance to cytotoxic activity of these mitotic inhibitors.

GMA32 cells [5] = experiment: FACS analysis of sub-G1 cells (cell death) in GMA32 cells; type: cell-based, Chinese hamster; conditions: GMA32, 4.5 μg Dbait with lipofectamine, no irradiation or mitotic inhibitor
Protocol: as §1, §2
The M1 phase represents the percentage of cells in sub-G1 stage indicative of cell death.
The experiments were performed with a FACS calibur flow cytometer (Becton Dickinson). Cells were collected, suspended in 1 ml of cold GM buffer (6.5 mM glucose, 137 mM NaCl, 5.4 mM KCl, 2 mM Na2HPO4, 1 mM KHPO4, 0.5 mM EDTA), and stored at 4° C. for at least 2 hours after addition of 3 ml of cold 100% ethanol.
At that stage, cells were eventually washed with 1×PBS, then stained for 30 minutes at room temperature in PI solution (50 μg/ml propidium iodide, 25 μg/ml RNase A in 1×PBS buffer). 10,000 events were analyzed with Cellquest software, and cell aggregates were gated out. The percentage of cells with a sub-G1 content of DNA was scored.

[6] = test system: p53 serine 15 phosphorylation in GMA32 cells; experiment: Western blot of p53 serine 15 phosphorylation in GMA32 cells; type: cell-based, Chinese hamster; conditions: GMA32, Dbait with lipofectamine, no irradiation or mitotic inhibitor
Protocol: Further experiment was carried out in order to look for evidence of DNA damage signaling. The protein p53 is a well known major protein in mediating DNA damage signaling and in coordinating appropriate responses (DNA repair, apoptosis, etc.) by changing its phosphorylation status. In particular, the phosphorylation of serine 15 residue is involved in the interaction with MDM2 protein which acts as a feed back control Thus, the phosphorylation status of the serine 15 of p53 was assessed by Western blot.
For Western blot analysis, cells were lysed in Laemmli buffer. Equal amounts of lysates were resolved in 12% polyacrylamide gels. Proteins were transferred to nitrocellulose membranes, which were blocked with 5% nonfat milk (1 hour) before overnight incubation with anti-p53Ser15 antibody (9284, Cell Signaling) diluted 500 folds in TBST buffer (10 mM Tris-HCl pH7.5, 150 mM NaCl, 0.1% Tween 20) containing 5% nonfat milk. Blots were then incubated with horseradish peroxidase-conjugated goat anti-rabbit IgG secondary antibodies (P0448, Dako) diluted 1/5000 in TBST. Protein-antibody complexes were detected by enhanced chemiluminescence (RPN2106 ECL, Amersham).

Ku complex = molecular target: T1, Ku complex (Homo sapiens, UniProt P12956+P13010); experiment: Band-shift assay with Hep2 nuclear protein extracts; type: binding; conditions: 10 nM 32P radio-labelled Dbait, 0-320 ng/μL Hep2 nuclear proteins, 30° C., 10 minutes
T1 construct: in the presence of nuclear protein extracts from Hep2 cells according to standard protocol; endogenous in cells; host or cells: Hep2 cells (nuclear protein extract)
Protocol: As the first step to dissect the mechanism of action of Dbait molecules, a series of band-shift assays were carried out with different ^32P radio-labelled Dbait molecules in the presence of nuclear protein extracts from Hep2 cells according to standard protocol. Typically, 10 nM ^32P radio-labelled Dbait molecules were incubated in the presence of various concentrations of nuclear proteins (0, 10, 20, 40, 80, 160, and 320 ng/μL) at 30° C. for 10 minutes in TBE buffer. Then the samples were loaded on a 5% acrylamide native gel. The electrophoresis was run at 95V for 2 hours at 4° C. The gel was dried and scanned by phosphorimager (Molecular Dynamics).
For 32-bp Dbait molecules, the intensity of the retarded band 1 increases and then decreases as the concentration of protein increases, while the intensity of the retarded band 2 increases as a function of the concentration of nuclear protein extracts.
It is likely that band 1 has one Ku70/80 complex bound to the 16 to 32-bp Dbait, whereas the band 2 has two Ku70/80 complexes bound to the 32-bp Dbait molecules. Control experiments performed with purified Ku proteins confirmed this interpretation.

T1 sequence (P12956 whole entry): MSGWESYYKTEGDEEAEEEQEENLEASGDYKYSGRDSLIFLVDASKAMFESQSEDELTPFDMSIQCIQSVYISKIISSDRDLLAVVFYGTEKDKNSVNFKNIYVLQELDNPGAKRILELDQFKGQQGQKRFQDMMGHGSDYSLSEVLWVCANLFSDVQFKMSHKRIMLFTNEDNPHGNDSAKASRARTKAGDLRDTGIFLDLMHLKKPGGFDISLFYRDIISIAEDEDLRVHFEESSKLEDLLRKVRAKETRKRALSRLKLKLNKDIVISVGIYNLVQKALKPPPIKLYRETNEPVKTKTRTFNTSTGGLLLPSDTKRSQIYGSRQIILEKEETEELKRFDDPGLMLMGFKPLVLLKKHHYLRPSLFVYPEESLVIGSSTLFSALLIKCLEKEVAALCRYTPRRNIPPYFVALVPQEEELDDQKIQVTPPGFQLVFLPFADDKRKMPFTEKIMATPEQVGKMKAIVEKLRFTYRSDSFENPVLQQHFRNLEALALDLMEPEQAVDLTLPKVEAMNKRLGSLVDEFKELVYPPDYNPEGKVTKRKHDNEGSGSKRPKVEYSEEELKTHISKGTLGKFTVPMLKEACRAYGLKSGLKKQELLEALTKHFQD
T1 sequence (P13010 whole entry): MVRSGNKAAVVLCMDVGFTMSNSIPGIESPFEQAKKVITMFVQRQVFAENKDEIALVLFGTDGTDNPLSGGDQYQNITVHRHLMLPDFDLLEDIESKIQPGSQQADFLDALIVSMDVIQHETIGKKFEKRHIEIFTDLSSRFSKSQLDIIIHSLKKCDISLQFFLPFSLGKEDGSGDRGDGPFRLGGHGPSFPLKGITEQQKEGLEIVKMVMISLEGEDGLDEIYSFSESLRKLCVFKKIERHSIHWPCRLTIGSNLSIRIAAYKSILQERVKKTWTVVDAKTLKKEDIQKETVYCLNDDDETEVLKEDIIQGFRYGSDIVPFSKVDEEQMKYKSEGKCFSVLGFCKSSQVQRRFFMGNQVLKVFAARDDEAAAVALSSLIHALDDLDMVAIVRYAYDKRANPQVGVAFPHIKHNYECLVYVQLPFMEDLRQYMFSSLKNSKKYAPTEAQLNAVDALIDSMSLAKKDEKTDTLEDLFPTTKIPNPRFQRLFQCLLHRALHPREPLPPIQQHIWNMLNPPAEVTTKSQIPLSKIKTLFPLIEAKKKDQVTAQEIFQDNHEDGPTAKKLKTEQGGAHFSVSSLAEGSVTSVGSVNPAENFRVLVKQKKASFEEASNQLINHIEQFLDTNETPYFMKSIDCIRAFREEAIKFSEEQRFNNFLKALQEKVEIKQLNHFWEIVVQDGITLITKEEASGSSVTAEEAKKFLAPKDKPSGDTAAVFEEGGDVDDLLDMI

Row | Substance | persistence of DSB sites (γ-H2AX foci) [1] | distribution in tumor tissues [2] | γ-H2AX DSB foci (cell response) [3] | chemosensitization (clonal survival) (GMA32 cells [4]; GMA32, 200 nM nocodazole, 100 nM navelbine (vinorelbine) or 200 nM taxol (paclitaxel)) | radiosensitization (clonal survival) (GMA32 cells [4]; GMA32, 4 Gy irradiation) | cell death (cells in sub-G1 stage) (GMA32 cells [5]) | phosphorylation of p53 serine 15 [6] | retarded bands in band-shift assay (Ku complex)
1 | Dbait32H-FITC: Dbait32H labelled via a T tagged with fluorescein (DNA ACGCACGGGTGTTGGGTCGTTTGTTCGGATCT; DNA, backbone not given here; fluorescein on a T, hairpin, hexaethyleneglycol loop, phosphorothioate blunt end, further chemistry not fully specified) | DSB sites persisted | heterogeneously disseminated in tumor tissues; also recorded: preferential nucleus localization |  |  |  |  |  | 
2 | Dbait32: 32-bp linear double-stranded Dbait molecule (SEQ ID NO: 1) (ACGCACGGGTGTTGGGTCGTTTGTTCGGATCT; DNA, backbone not given here; linear DNA duplex, phosphorothioates at blunt ends, exact count not readable, further chemistry not fully specified) |  |  | effectively trigger similar cell response as if DNA damages were occurred in nuclei | chemosensitization was also observed | radiosensitization to 4 Gy irradiation was observed | Significant cell death | highly phosphorylated | two retarded band
